This is an account of results in patent publication US20090158455A1, “COMPOSITIONS AND METHODS FOR MODULATING LYSINE PRODUCTION” (priority 2005, published 2009).

Data set [1] concerns the target T1, CT390 (Chlamydia trachomatis serovar D, UniProt O84395).
T1 construct: His-Tag (N); made in house; host or cells: E. coli
Briefly: Quantitative reverse assay of pure CT390. The class given is biochemical. The following applies: for Km: reverse assay, apparent Km; for Use as amino donor by CT390: reverse direction.

The target in data set [2] is Arabidopsis thaliana LL-DAP-AT (At4g33680), wild type, recombinant (lacks first 39 amino acids, hexa-His and S-TAG), SEQ ID NO: 7 (Arabidopsis thaliana, UniProt Q93ZN9). Put plainly: Quantitative coupled reverse and forward assays of pure recombinant LL-DAP-AT (Table III). The class given is biochemical. As for the experimental part: (§1) For enzyme assays of crude proteins, extracts were prepared by grinding tissue in liquid nitrogen with 100 mM HEPESKOH (pH 7.6), followed by centrifugation at 10,000 g for 15 min, and then buffer exchange using an Amicon Ultra 30,000 MWCO filter. […] Reactions were incubated at 30° C. and the ΔA (440 nm) measured continuously. […] The reaction was incubated at 30° C., and the decrease in A340 was measured. […] The reaction was run to completion, determined by monitoring the increase in A340. […] The kinetic constants were calculated by nonlinear regression analysis using GraphPad Prizm version 4.03.
For this reason quantitative coupled assays were developed to assess the enzyme activity in both the reverse and forward directions. […] The reaction sequence is shown in Scheme 1.
The overall reaction series is shown in Scheme 2.
Thio-NADH has an absorbance maximum at 398 nm, which can be discerned from NADPH, which has an absorbance maximum at 340 nm. FIG. 4 illustrates such a reaction. […] Two plots are shown using 0.55 and 0.055 mM m-DAP.

Data set [3] concerns the target T1, CT390. Put plainly: Quantitative forward assay of pure CT390. The following applies: apparent Km. Format: biochemical. As for the experimental part: All enzyme assays were carried out essentially as described in Example I. Incubation temperature was 30° C. Kinetic constants were determined by varying substrate concentrations while keeping the co-substrate level constant at the concentration described below. Kinetic data were analyzed by non-linear regression analysis using GraphPad Prizm Version 4.03.
Quantitative assay of the physiologically forward reaction was carried out sequentially in a pre-reaction to generate THDP from m-DAP followed by an LL-DAP aminotransferase assay. […] The pre-reaction was run to completion, monitored by the increase in absorbance at 340 nm resulting from NADPH formation. The aminotransferase reaction was monitored at 398 nm to measure the formation of thioNADH. […] Subsequently, the aminotransferase assay was initiated by addition of CT390, bringing the total reaction volume to 1 mL.

For the next data set, the target named is T2, Arabidopsis LL-DAP-AT (Arabidopsis thaliana, UniProt Q93ZN9).
T2 construct: The protein extract was prepared from Arabidopsis leaves by grinding in liquid nitrogen; from tissue; host or cells: Arabidopsis leaves / axenically grown plants, crude soluble extract
Put plainly: OAB assay of LL-DAP-AT activity in Arabidopsis leaf extract. Format: biochemical. The following applies: added at 1,000-fold excess over LL-DAP; data not shown. As for the experimental part: FIGS. 2A and 2B. LL-DAP-AT activity in Arabidopsis. […] The reaction was incubated at 30° C. The protein extract was prepared from Arabidopsis leaves by grinding in liquid nitrogen with 100 mM HEPESKOH (pH 7.6), centrifugation at 10,000 g for 15 min, and buffer exchange using an Amicon Ultra 30,000 MWCO filter.
as §1
The rate of the reaction was directly proportional to the amount of protein extract added (FIG. 2B). […] If the extract was heated in a boiling water bath for 5 min, the activity was completely destroyed. […] Moreover, since the source material was axenically grown, the activity must have been derived from the Arabidopsis rather than a contaminating microorganism.

A further data set concerns the target AGD2 protein (At4g33680) (Arabidopsis thaliana, UniProt Q93ZN9). The following applies: transamination of Lys, Song et al. (2004); cited from earlier work.
For data set [4], the system named is LL-DAP transaminase. Briefly: Quantitative reverse assay of purified microbial LL-DAP transaminases. The class given is biochemical. The following applies: reverse. The procedure:
(§2) Enzyme assays were performed as described above in Examples I and II.
(§3) The catalytic properties of sll0480, BF2643, Dhaf—3980, MTH52, and SfumDRAFT0821 were studied in greater detail using purified enzymes to determine their kinetic constants using quantitative forward and reverse assays.

Data set [5] has as its system LL-DAP transaminase. Put plainly: Quantitative forward assay of purified microbial LL-DAP transaminases. Format: biochemical. The procedure:
as §2, §3

Data set [6] addresses T3, LL-DAP transaminase (Synechocystis sp., UniProt Q55828).
T3 construct: His-Tag; made in house; host or cells: E. coli BL21-CodonPlus-RIPL
Put plainly: Quantitative reverse assay of purified microbial LL-DAP transaminases. The class given is biochemical. The following applies: keto acids (5 mM) substituted for 2-oxoglutarate in reverse and for THDPA in forward reaction. The procedure:
as §2, §3

In data set [7] the target is A. thaliana LL-DAP transaminase (Arabidopsis thaliana, UniProt Q93ZN9). Briefly: Inhibitors of LL-DAP transaminase, m-DAP dehydrogenase coupled assay. Format: biochemical. The following applies: inhibitor 40 mM, substrate LL-DAP 0.05 mM. The procedure:
as §1
(§4) Assays for assessing the ability of certain compounds to inhibit LL-DAP aminotransferase have been performed and the results are shown below in Table V. The reactions were performed as described above.

The subject of data set [8] is maize LL-DAP transaminase. Put plainly: Inhibitors of LL-DAP transaminase, ortho aminobenzaldehyde assay. Format: biochemical, maize (Zea mays). The following applies: substrate LL-DAP 0.5 mM. As for the experimental part:
as §1, §4

Data set [9] deals with Methanothermobacter thermautotrophicus LL-DAP transaminase MTH52 (Methanothermobacter thermautotrophicus, UniProt O26158). Put plainly: Quantitative forward and reverse assays of purified LL-DAP transaminases (Example III). The following applies: reverse assay.
Methanothermobacter thermautotrophicus LL-DAP transaminase MTH52, sequence (O26158 whole entry): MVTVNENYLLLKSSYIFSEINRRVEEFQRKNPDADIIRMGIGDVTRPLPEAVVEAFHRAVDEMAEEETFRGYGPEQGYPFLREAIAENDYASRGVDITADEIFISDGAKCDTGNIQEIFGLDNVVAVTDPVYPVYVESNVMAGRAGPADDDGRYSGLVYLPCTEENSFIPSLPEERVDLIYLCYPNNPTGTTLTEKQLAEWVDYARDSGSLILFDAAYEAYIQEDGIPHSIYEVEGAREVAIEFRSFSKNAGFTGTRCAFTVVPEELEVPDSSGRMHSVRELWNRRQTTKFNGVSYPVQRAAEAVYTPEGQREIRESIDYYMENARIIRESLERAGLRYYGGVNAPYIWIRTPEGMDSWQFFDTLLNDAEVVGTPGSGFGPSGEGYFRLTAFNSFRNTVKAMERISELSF
Experimental: This plasmid was transformed into E. coli BL21-CodonPlus®-RIPL for expression and purification of the recombinant protein.
For protein expression the E. coli strains were grown on LB at 37° C. to an OD600 nm of 0.5 and protein expression was then induced with 1 mM IPTG for 4 hr at 25° C. Cells were lysed by sonication in a solution of 50 mM sodium phosphate and 300 mM NaCl (pH 8.0). Metabolites in the extract were removed by buffer exchange using an Amicon Ultra 30,000 MWCO ultrafilter and sodium phosphate/NaCl buffer, and the concentrated soluble protein sample was used for measurement of enzyme activity as an initial assessment of enzyme function. When the recombinant protein was to be purified a larger cell culture was grown and lysed as described above, but the buffer exchange step was not carried out. […] The pure protein was then concentrated in an Amicon Ultra 30,000 MWCO ultrafilter, replacing the elution buffer with 100 mM HepesKOH, pH 7.6.

Arabidopsis thaliana LL-DAP-AT (At4g33680), wild type, recombinant (lacks first 39 amino acids, hexa-His and S-TAG), SEQ ID NO: 7, sequence (Q93ZN9 40-461): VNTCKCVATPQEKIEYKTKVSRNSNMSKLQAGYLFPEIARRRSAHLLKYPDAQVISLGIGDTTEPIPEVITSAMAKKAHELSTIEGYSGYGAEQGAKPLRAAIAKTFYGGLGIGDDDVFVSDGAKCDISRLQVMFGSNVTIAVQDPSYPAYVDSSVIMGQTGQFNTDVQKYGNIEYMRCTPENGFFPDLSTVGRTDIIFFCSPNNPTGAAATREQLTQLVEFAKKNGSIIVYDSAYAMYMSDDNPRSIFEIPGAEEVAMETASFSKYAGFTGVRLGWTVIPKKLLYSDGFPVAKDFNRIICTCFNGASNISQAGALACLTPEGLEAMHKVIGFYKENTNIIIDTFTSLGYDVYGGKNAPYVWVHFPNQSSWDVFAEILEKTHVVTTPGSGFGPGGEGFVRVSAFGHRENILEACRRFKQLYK
T1 sequence (O84395 whole entry): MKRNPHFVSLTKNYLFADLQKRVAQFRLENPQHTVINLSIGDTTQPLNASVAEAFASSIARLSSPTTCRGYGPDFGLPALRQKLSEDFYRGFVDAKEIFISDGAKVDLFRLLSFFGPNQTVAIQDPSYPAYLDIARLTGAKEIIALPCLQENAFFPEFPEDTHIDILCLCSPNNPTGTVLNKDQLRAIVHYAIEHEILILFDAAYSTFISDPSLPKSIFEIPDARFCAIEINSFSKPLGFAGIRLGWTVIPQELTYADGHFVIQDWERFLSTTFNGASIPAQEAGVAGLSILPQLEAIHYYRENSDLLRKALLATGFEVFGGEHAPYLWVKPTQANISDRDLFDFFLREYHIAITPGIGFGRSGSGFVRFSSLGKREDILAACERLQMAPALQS
T2 sequence (Q93ZN9 46-461): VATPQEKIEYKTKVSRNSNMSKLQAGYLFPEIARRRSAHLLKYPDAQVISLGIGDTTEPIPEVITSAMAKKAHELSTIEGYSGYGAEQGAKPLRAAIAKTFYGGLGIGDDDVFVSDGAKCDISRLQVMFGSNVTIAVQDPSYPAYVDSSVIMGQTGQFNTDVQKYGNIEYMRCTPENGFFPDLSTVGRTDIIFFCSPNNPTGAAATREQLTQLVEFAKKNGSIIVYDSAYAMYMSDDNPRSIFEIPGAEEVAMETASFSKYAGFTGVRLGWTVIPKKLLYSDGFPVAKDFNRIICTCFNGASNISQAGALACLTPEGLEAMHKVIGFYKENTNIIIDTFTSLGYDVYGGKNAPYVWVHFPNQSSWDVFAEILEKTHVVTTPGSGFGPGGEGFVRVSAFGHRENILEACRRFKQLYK
T3 sequence (Q55828 whole entry): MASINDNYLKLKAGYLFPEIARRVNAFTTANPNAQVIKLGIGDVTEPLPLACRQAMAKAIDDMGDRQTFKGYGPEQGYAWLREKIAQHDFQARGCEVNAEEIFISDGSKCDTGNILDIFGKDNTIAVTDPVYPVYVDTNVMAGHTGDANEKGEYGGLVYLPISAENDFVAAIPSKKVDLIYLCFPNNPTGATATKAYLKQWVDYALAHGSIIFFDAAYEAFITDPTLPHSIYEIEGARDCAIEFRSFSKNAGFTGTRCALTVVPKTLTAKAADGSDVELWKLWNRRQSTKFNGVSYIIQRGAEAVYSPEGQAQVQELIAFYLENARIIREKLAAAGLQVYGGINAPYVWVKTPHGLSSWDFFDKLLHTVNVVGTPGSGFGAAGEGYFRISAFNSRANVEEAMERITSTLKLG
A. thaliana LL-DAP transaminase, sequence (Q93ZN9 40-461): as the sequence (Q93ZN9 40-461) above
AGD2 protein (At4g33680), sequence (Q93ZN9 46-461): as the sequence (Q93ZN9 46-461) above

For `O=C(O)CCC(=O)C(=O)O` [2-OG, 2-oxoglutarate, reference compound], the Km (usually the substrate concentration at which the rate is half of its maximum) at CT390 [1] amounted to 650 µM. As to `O=C(O)C1=N[C@H](C(=O)O)CCC1` [THDPA, L-2,3,4,5-tetrahydrodipicolinate], the Kcat in data set [2] (forward assay, pH 7.5) is 0.3 s⁻¹. Moreover, the Km on CT390 [3] is 200 µM. Consider `NCCCC[C@H](N)C(=O)O` [Lys, lysine], for which, at Arabidopsis LL-DAP-AT, the “Inhibition of the use of LL-DAP (LL-DAP-AT activity)” value is given as “did not inhibit”. Besides, the Km on AGD2 protein (At4g33680) was 58800 µM. Also, on CT390 [1], the “Use as amino donor by CT390” value is recorded as “unable to use”.

For the molecule “Mth52: LL-DAP transaminase from M. thermoautotrophicum”, the Km with LL-DAP transaminase [4] (read-out: Km 2-OG, substrate 2-OG) stood at 800 µM. For the same molecule, in the data set with LL-DAP transaminase [4], the “Vmax R” value came out at 4.7 µmol/min/mg. Further, in the data set with LL-DAP transaminase [5], the “Vmax F” value stood at 0.6 µmol/min/mg. Consider “sII0480: LL-DAP transaminase from Synechocystis sp.”, for which the Keto acid specificity result with LL-DAP transaminase [6] was “active only with 2-oxoglutarate or THDPA”. Further, in the data set with LL-DAP transaminase [4], the “Vmax R” value was 3.3 µmol/min/mg. The “Vmax F” value with LL-DAP transaminase [5] was determined as 0.25 µmol/min/mg. In the case of `NC(CCC(O)C(N)C(=O)O)C(=O)O` (racemic) [Threo-β-hydroxy DAP (racemic), Threo-β-hydroxy DAP], the inhibition (in general, the percentage by which the read-out fell short of the control) at 40000 µM in [7] worked out at 68%. Regarding `N[C@@H](CCC[C@H](N)C(=O)O)C(=O)O` [LL-DAP, LL-2,6-diaminopimelate], the “Km for LL-DAP lower than the value for Lys” value in data set [2] (compared with Km of 58.8 mM for Lys of Song et al. (2004)) worked out at 830 fold. In addition, in data set [2] (reverse assay, pH 7.5, 30° C.), the Kcat stood at 17.6 s⁻¹. In addition, the Km on CT390 [1] came to 20 µM.

Turning to `NC(CCCCC(=O)O)C(=O)O` (racemic) [L, D-α-aminopimelate], the Inhibition % is reported as 50+ % in data set [8] (inhibitor 5 mM) and 83+ % in data set [8] (inhibitor 10 mM). With `N[C@@H](CCC(=O)O)C(=O)O` [Glu, glutamate, reference compound], on CT390 [3], the Km was 1000 µM. As to `N[C@@H](CCSC[C@H](N)C(=O)O)C(=O)O` [cystathionine], the “Use as amino donor by CT390” value on CT390 [1] is “unable to use”. For the molecule `NC(CCCC(N)C(=O)O)C(=O)O` (centres unmarked) [m-DAP, m-2,6-diaminopimelate], at Arabidopsis LL-DAP-AT, the “Inhibition of the use of LL-DAP (LL-DAP-AT activity)” value was “did not inhibit”. Further, the “Use as amino donor by CT390” value on CT390 [1] was “able to use”.

With `O=C(O)CCC(=O)C(=O)O` [2-OG, 2-oxoglutarate], the Km in [9] amounted to 800 µM.
